Where “and” joins values, the source holds several entries; their conditions need not be identical. Equal entries are not always repeated. Where two headings read alike, the source gives them in different places.
Biological target: T1, GPR73 (prokineticin 1 receptor) (Homo sapiens, UniProt Q8TCW9)
T1 construct: expressed in transfected cells; host or cells: HEK 293
Experiment: PK1 functional assay: Ca2+ mobilization on the FLIPR
Assay type: cell-based
Conditions: for inhibition at 10 µM: read-out: Ca^2+ Mobilization % Inh @10 µM; for IC50: HEK 293 GPR73 cells, read-out: Ca^2+ Mobilization IC50
Method: At a time of 24 h prior to running the assay, in cell culture media (DMEM containing high Glucose and L-glutamine, 10% FBS, 1% Pen/Streptomycin, 1% Sodium Pyruvate, 20 mM HEPES, Zeocin 200 mg/L), 100 µL of 1.3*10^6/ml HEK 293 GPR73 (prokineticin 1 receptor) expressing cells were plated in a 96 well poly-d-lysine coated plate (Costar), and incubated at 37° C. and 5% CO2. On the day in which the assay was run, the media was removed and 200 µL of 5× Calcium Plus Dye (Molecular Devices) which was previously resuspended with 200 mL of assay buffer [HBSS w/Ca^2+ and Mg^2+ w/o phenol red, 20 mM HEPES, 0.1% BSA, 10 mL probenecid (710 mg probenecid in 5 mL of 1N NaOH, to which was then added 5 mL HBSS containing 20 mM HEPES)] was added to each well of the 96-well plate. The plate was incubated at 37° C. and 5% CO2 for 30 min in dark. The plate was removed and allowed to reach RT for 15 min in the dark. The assay was then run on the FLIPR. In Brief: base line read for 1 min, compound added (25 μL) and incubated for 4 min, 15 seconds, PK1 ligand preparation added (25 μL) for a final concentration of a previously determined EC50 and fluorescence was counted for 1 min, 45 seconds. Baseline is described as the amount of relative fluorescence read when buffer alone is added to cells. Baseline was subtracted from all wells. Percent of control was calculated as follows: (Baseline subtracted well value is divided by baseline subtracted max value)*100. Percent inhibition is 100 minus the percent of control value.
The IC50 is defined as the amount of a given compound required to inhibit 50% of the maximum signal that is generated by the concentration of PK1 preparation used in our assay. IC50 values were calculated using GraphPad Prism.

T1 sequence (Q8TCW9 whole entry, species assumed): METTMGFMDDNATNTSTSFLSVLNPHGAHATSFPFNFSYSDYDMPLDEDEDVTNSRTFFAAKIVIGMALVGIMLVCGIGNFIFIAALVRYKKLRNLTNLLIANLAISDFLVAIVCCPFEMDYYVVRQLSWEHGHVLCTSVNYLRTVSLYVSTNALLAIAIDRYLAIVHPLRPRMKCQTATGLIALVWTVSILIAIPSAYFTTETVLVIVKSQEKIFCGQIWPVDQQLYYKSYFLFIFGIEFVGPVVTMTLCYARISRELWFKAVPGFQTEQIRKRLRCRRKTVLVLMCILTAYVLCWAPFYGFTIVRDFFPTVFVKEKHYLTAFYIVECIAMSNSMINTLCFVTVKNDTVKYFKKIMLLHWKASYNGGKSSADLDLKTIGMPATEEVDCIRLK

inhibition at 10 µM (10 µM) [%] | IC50 | inhibition at 10 µM (10 µM, (further determination)) [%] | IC50 (IC50 (further determination)) [nM] | SMILES
101 | 90 nM | – | – | CCc1ccc(Cn2c(=O)nc(NCCn3c(N)nc4ccccc43)n(Cc3ccc(OC)cc3)c2=O)cc1 [Cpd 71]
103 | 53 nM | 101 | 52 | Nc1nc2ccccc2n1CCNc1nc(=O)n(Cc2ccc(F)cc2)c(=O)n1Cc1ccc(OC(F)F)cc1 [Cpd 20]
93 | 323 nM | – | – | Nc1nc2ccc(F)cc2n1CCNc1nc(=O)n(Cc2ccc(F)cc2)c(=O)n1Cc1ccc(OC(F)(F)F)cc1 [Cpd 33]
99 | 157 nM | – | – | CSc1ccc(Cn2c(=O)nc(NCCn3c(N)nc4ccccc43)n(Cc3ccc(OC(F)F)cc3)c2=O)cc1 [Cpd 85]
72 | 2200 nM | – | – | Nc1nc2ccc(F)c(F)c2n1CCNc1nc(=O)n(Cc2ccc(F)cc2)c(=O)n1Cc1ccc(OC(F)(F)F)cc1 [Cpd 37]
99 | 996 nM | – | – | NC1=Nc2ccc(F)cc2CN1CCNc1nc(=O)n(Cc2ccc(F)cc2)c(=O)n1Cc1ccc(OC(F)(F)F)cc1 [Cpd 51]
83 | 406 nM | – | – | Nc1nc2ccc(F)c(F)c2n1CCNc1nc(=O)n(Cc2ccc(F)cc2)c(=O)n1Cc1ccc(OC(F)F)cc1 [Cpd 29]
96 | 102 nM | – | – | Nc1ncc(CCNc2nc(=O)n(Cc3ccc(Cl)c(Cl)c3)c(=O)n2Cc2ccc(OC(F)F)cc2)[nH]1 [Cpd 79]
97 | 345 nM | – | – | Nc1nc2ccccc2n1CCNc1nc(=O)n(Cc2ccc(Cl)c(Cl)c2)c(=O)n1Cc1ccc(OC(F)F)cc1 [Cpd 84]
90 | 502 nM | – | – | CCc1ccc(Cn2c(=O)nc(NCCc3cnc(N)[nH]3)n(Cc3ccc(OC(F)F)cc3)c2=O)cc1 [Cpd 81]
39 | > 10000 nM | – | – | Nc1nc2c(F)cc(F)cc2n1CCNc1nc(=O)n(Cc2ccc(F)cc2)c(=O)n1Cc1ccc(OC(F)F)cc1 [Cpd 28]
91 | 969 nM | – | – | Nc1nc2cccc(F)c2n1CCNc1nc(=O)n(Cc2ccc(F)cc2)c(=O)n1Cc1ccc(OC(F)(F)F)cc1 [Cpd 40]
54 | 2010 nM | – | – | Nc1ncc(CCNc2nc(=O)n(Cc3ccc(Cl)c(Cl)c3)c(=O)n2Cc2ccc3c(c2)CCO3)[nH]1 [Cpd 63]
100 | 28 nM | 97 | 57 | Nc1nccn1CCNc1nc(=O)n(Cc2ccc(F)cc2)c(=O)n1Cc1ccc(OC(F)F)cc1 [Cpd 23]
98 | 224 nM | – | – | Cn1nnc2cc(Cn3c(=O)nc(NCCc4cnc(N)[nH]4)n(Cc4ccc(OC(F)F)cc4)c3=O)ccc21 [Cpd 83]
90 | 155 nM | – | – | COc1ccc(Cn2c(NCCn3c(N)nc4ccc(Cl)cc43)nc(=O)n(Cc3ccc(F)cc3)c2=O)cc1 [Cpd 10]
97 | 225 nM | – | – | Nc1nc2ccccc2n1CCNc1nc(=O)n(Cc2ccc3c(c2)CCO3)c(=O)n1Cc1ccc2c(c1)CCO2 [Cpd 76]
96 | 202 nM | – | – | Nc1ncc(CCNc2nc(=O)n(Cc3ccc4c(c3)CCO4)c(=O)n2Cc2ccc(OC(F)F)cc2)[nH]1 [Cpd 82]
102 | 66 nM | – | – | COc1ccc(Cn2c(NCCn3c(N)nc4ccccc43)nc(=O)n(Cc3ccc(Cl)c(Cl)c3)c2=O)cc1 [Cpd 69]
103 | 233 nM | – | – | NC1=Nc2ccc(Cl)cc2CN1CCNc1nc(=O)n(Cc2ccc(F)cc2)c(=O)n1Cc1ccc(OC(F)(F)F)cc1 [Cpd 49]
99 | 55 nM | – | – | COc1ccc(Cn2c(NCCn3c(N)nc4ccccc43)nc(=O)n(Cc3ccc4c(c3)nnn4C)c2=O)cc1 [Cpd 77]
94 | 337 nM | – | – | CCc1ccc(Cn2c(=O)nc(NCCn3c(N)nc4ccccc43)n(Cc3ccc(OC(F)F)cc3)c2=O)cc1 [Cpd 86]
100 | 61 nM | – | – | Nc1nccn1CCNc1nc(=O)n(Cc2ccc(F)cc2)c(=O)n1Cc1ccc(OC(F)(F)F)cc1 [Cpd 22]

inhibition at 10 µM (10 µM) [%] | IC50 | inhibition at 10 µM (10 µM, (further determination)) [%] | IC50 (IC50 (further determination)) [nM] | SMILES
97 | 48 nM | 96 | 42 | COc1ccc(Cn2c(NCCc3cnc(N)[nH]3)nc(=O)n(Cc3ccc(F)cc3)c2=O)cc1 [Cpd 4]
35 | > 10000 nM | – | – | CCc1ccc(Cn2c(=O)nc(NCCc3cnc(N)[nH]3)n(Cc3ccc4c(c3)CCO4)c2=O)cc1 [Cpd 65]
85 | 295 nM | – | – | CCc1ccc(Cn2c(=O)nc(NCCc3cnc(N)[nH]3)n(Cc3ccc(OC)cc3)c2=O)cc1 [Cpd 60]
91 | 322 nM | – | – | COc1ccc(Cn2c(NCc3c[nH]c(N)n3)nc(=O)n(Cc3ccc(F)cc3)c2=O)cc1 [Cpd 6]
84 | 670 nM | – | – | Nc1nc2ccc(Cl)cc2n1CCNc1nc(=O)n(Cc2ccc(F)cc2)c(=O)n1Cc1ccc(OC(F)(F)F)cc1 [Cpd 38]
87 | 363 nM | – | – | Nc1nc2cc(F)ccc2n1CCNc1nc(=O)n(Cc2ccc(F)cc2)c(=O)n1Cc1ccc(OC(F)(F)F)cc1 [Cpd 34]
92 | 81 nM | 88 | 15 | Nc1nc2cc(F)ccc2n1CCNc1nc(=O)n(Cc2ccc(F)cc2)c(=O)n1Cc1ccc(OC(F)F)cc1 [Cpd 26]
40.4 | > 10000 nM | – | – | COc1ccc(Cn2c(NCCNc3nc4ccccc4[nH]3)nc(=O)n(Cc3ccc(Cl)c(Cl)c3)c2=O)cc1 [Cpd 1, 6-[2-(1H-Benzoimidazol-2-ylamino)-ethylamino]-3-(3,4-dichloro-benzyl)-1-(4-methoxy-benzyl)-1H-[1,3,5]triazine-2,4-dione]
100 | 161 nM | – | – | NC1=Nc2ccc(O)cc2CN1CCNc1nc(=O)n(Cc2ccc(F)cc2)c(=O)n1Cc1ccc(OC(F)F)cc1 [Cpd 56]
51 | 7390 nM | – | – | COc1ccc(Cn2c(C(=O)NCCn3c(N)nc4ccccc43)cc(=O)n(Cc3ccc(OC)cc3)c2=O)cc1 [Cpd 13, 1,3-Bis-(4-methoxy-benzyl)-2,6-dioxo-1,2,3,6-tetrahydro-pyrimidine-4-carboxylic acid [2-(2-amino-benzoimidazol-1-yl)-ethyl]-amide]
78 | 1410 nM | – | – | Cn1nnc2cc(Cn3c(=O)nc(NCCc4cnc(N)[nH]4)n(Cc4ccc5c(c4)CCO5)c3=O)ccc21 [Cpd 68]
99 | 332 nM | – | – | NC1=Nc2cc(Cl)ccc2CN1CCNc1nc(=O)n(Cc2ccc(F)cc2)c(=O)n1Cc1ccc(OC(F)(F)F)cc1 [Cpd 50]
96 | 27 nM and 183 nM | 95 | 97 | Nc1ncc(CCNc2nc(=O)n(Cc3ccc(F)cc3)c(=O)n2Cc2ccc(OC(F)(F)F)cc2)[nH]1 [Cpd 54, 6-[2-(2-Amino-3H-imidazol-4-yl)-ethylamino]-3-(4-fluoro-benzyl)-1-(4-trifluoromethoxy-benzyl)-1H-[1,3,5]triazine-2,4-dione]
102 | 34 nM | – | – | CSc1ccc(Cn2c(=O)nc(NCCn3c(N)nc4ccccc43)n(Cc3ccc4c(c3)CCO4)c2=O)cc1 [Cpd 74]
101 | 116 nM | – | – | NC1=Nc2cccc(Cl)c2CN1CCNc1nc(=O)n(Cc2ccc(F)cc2)c(=O)n1Cc1ccc(OC(F)(F)F)cc1 [Cpd 48]
103 | 118 nM | – | – | NC1=Nc2cc(Cl)ccc2CN1CCNc1nc(=O)n(Cc2ccc(F)cc2)c(=O)n1Cc1ccc(OC(F)F)cc1 [Cpd 44]
86 | 252 nM | – | – | Nc1nc2ccc(Cl)cc2n1CCNc1nc(=O)n(Cc2ccc(F)cc2)c(=O)n1Cc1ccc(OC(F)F)cc1 [Cpd 30]
95 | 144 nM | – | – | COc1ccc2c(c1)N=C(N)N(CCNc1nc(=O)n(Cc3ccc(F)cc3)c(=O)n1Cc1ccc(OC(F)F)cc1)C2 [Cpd 57]
102 | 104 nM | 100 | 212 | Nc1nc2ccccc2n1CCNc1nc(=O)n(Cc2ccc(F)cc2)c(=O)n1Cc1ccc(OC(F)(F)F)cc1 [Cpd 19]
102 | 66 nM | 104 | 130 | Cn1nnc2cc(Cn3c(=O)nc(NCCn4c(N)nc5ccccc54)n(Cc4ccc5c(c4)CCO5)c3=O)ccc21 [Cpd 78]
95 | 163 nM | – | – | COc1ccc(Cn2c(NCCn3c(N)nc4cc(C(F)(F)F)ccc43)nc(=O)n(Cc3ccc(F)cc3)c2=O)cc1 [Cpd 8]
37 | > 10000 nM | – | – | Nc1nccn1CCNc1nc(=O)n(Cc2ccc(F)cc2)c(=O)n1Cc1ccc(F)cc1 [Cpd 21]

From patent US8324380B2, “Amino-heteroaryl-containing prokineticin 1 receptor antagonists” (Janssen Pharmaceutica NV, priority 2007, dated 2012)
